# Measured values from patent US8362021B2, “Method for increasing the bioavailability of benzhydryl piperazine containing compounds” (Zalicus Pharmaceuticals Ltd., priority 2006, dated 2013).
# Read-outs that look alike come from different tables or passages of the source.
# Experiment: Single dose, open-label food effect pharmacokinetic trial of oral capsules in healthy subjects
# Format: in vivo, human
# Conditions: for bioavailability / Tmax: human, plasma, po; for bioavailability: healthy subjects; for Tmax: oral administration
# Procedure: A single centre, single dose, open-label trial in healthy subjects was conducted. Study drug treatments were as follows: • Treatment A: Compound No. 1, in capsule form (25-400 mg) administered without food; • Treatment B: Compound No. 1, in capsule form (400-800 mg) administered with a normal fat meal; • Treatment C: Compound No. 1, in capsule form (400-1600 mg) administered with a high-fat meal.
# In treatment A, subjects fasted overnight with water permitted up to one hour before dosing. One or more 25 mg or 100 mg capsules of Compound No. 1 were administered with 240 mL room temperature water. Subjects continued to fast for approximately 4 hours until lunch. All meals and snacks provided during the study were low fat and standardized. Additional water was allowed ad lib but there was no caffeine, smoking or alcohol and no vigorous exercise.
# In treatments B and C, subjects consumed breakfast the day of the study. Breakfast commenced approximately 30 minutes prior to dosing with dosing occurring within 10 minutes after finishing the meal. One or more 25 mg or 100 mg capsules containing Compound No. 1 were administered to the subjects with 240 mL room temperature water. After dosing, subjects consumed no food until lunch and otherwise followed the same protocol as in treatment A.
# In treatment B, a normal fat meal consisted of: toast with 1 pat of butter; a banana; 2% milk; apple juice; and Honey Nut Cheerios®. In treatment C, a high fat meal consisted of: 2 slices of buttered toast, 2 eggs fried in butter, 2 slices of bacon, 4 oz hash brown potatoes and 8 oz of whole milk.
# Subjects received one or two doses. There was a washout period of at least 14 days between study drug administrations in those subjects dosed more than once. […] The actual dosing and sample times were recorded on a Case Report Form. At least 15 blood samples were collected during the period from pre-dose through 48 hours post-dose; in most subjects, additional samples were obtained at 60, 72, 120, 168 and 336 hours post-dose. Concentrations of Compound No. 1 were determined in plasma by BASi Northwest Laboratories Inc. (McMinnville, Oreg.) by LC-MS/MS. The lower limit of quantitation for Compound No. 1 was 0.05 ng/mL. Sample values below the lower limit of quantitation were reported as “<0.05 ng/mL”.
# Pharmacokinetic parameters were obtained using compartmental methods. Relative exposure was quantified through the term relative bioavailability. In that none of the subjects received an intravenous dose of Compound No. 1, absolute bioavailability could not be determined. […] There were no protocol deviations that confounded the pharmacokinetic analyses.
# Statistical analyses were performed using NONMEM version 5. Study results were not corrected for drug potency.
smiles,measurement,setting,value
"O=C(CC(c1ccccc1)c1ccccc1)N1CCN(C(c2ccccc2)c2ccccc2)CC1 [Compound No. 1, 1-(3,3-diphenylpropionyl)-4-benzhydryl piperazine]","bioavailability, normal fat meal vs high fat meal (individual plasma concentrations, FIGS. 3 and 4)",400 mg and 800 mg dosage,increased bioavailability
same,decrease of bioavailability,fasting compared to a normal fat meal,32%
same,increase of bioavailability of capsules,high fat meal compared to a normal fat meal,460%
same,bioavailability,"typical value, read-out: Relative bioavailability, 25-mg capsules (relative to 100-mg capsules)",148%
same,Tmax,subjects fasted,< 2 h
same,Tmax,subjects fed a high fat meal,4 to 5 h
same,Tmax,subjects fed a normal fat meal,2 to 5 h
same,bioavailability,"oral capsules, typical value of compartmental NONMEM analysis, read-out: Relative bioavailability, Fasted (relative to normal-fat meal)",68.2%
